The text below walks through data of patent EP1803452A1, “ESTER DERIVATIVE AND PHARMACEUTICAL USE THEREOF” (Japan Tobacco, Inc., priority 2004, dated 2006).

The nature of data set [1]: Metabolic stability test in liver S9. The format is in vitro ADME. The note with it: pH 7.4, human liver S9 2 mg protein/mL, LC/MS; for remaining at 10 min: unchanged form after 10 minutes at 37°C, read-out: Remaining rate in human liver S9 (%/10min); for remaining at 1 h: unchanged form after 60 minutes at 37°C, read-out: Remaining rate in human liver S9 (%/60min). The method in brief:
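Compound from DMSO solution was incubated at 37°C with human liver S9 (final 2 mg protein/mL) in 100 mM potassium phosphate pH 7.4 with an NADPH-regenerating system for 0, 10 and 60 minutes. Reactions were stopped with acetonitrile/0.1% formic acid. Unchanged compound was measured by LC/MS as remaining rate (%) relative to zero time.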

Data set [2] is described as follows: Metabolic stability test in plasma. The format is in vitro ADME, human. The note with it: LC/MS; for remaining at 10 min: unchanged form after 10 minutes at 37°C in human plasma, read-out: Remaining rate in human plasma (%/10min); for remaining at 1 h: unchanged form after 60 minutes at 37°C in human plasma, read-out: Remaining rate in human plasma (%/60min). In a few lines: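 Compound in DMSO spiked into human, mouse or hamster plasma, incubated at 37°C for 0, 10 and 60 minutes, then quenched with acetonitrile/formic acid (final 0.1%). Unchanged compound in supernatant quantified by LC/MS; remaining rate (%) relative to time zero.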

Data set [3] can be described thus: Stability test in buffer (pH 7.4). The class given is physicochemical. The note with it: phosphate buffer/acetonitrile 7:3, 100 mM potassium phosphate buffer (pH 7.4) and acetonitrile 7:3 (v/v), LC/MS; for remaining at 10 min: 10 minutes at 37°C, read-out: Buf. remaining rate (%/10min); for remaining at 1 h: 60 minutes at 37°C, read-out: Buf. remaining rate (%/60min). The method in brief: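 Compound from DMSO solution incubated at 37°C in 100 mM potassium phosphate buffer/acetonitrile 7:3 (v/v) for 0, 10 and 60 min, then quenched with acetonitrile containing formic acid (final 0.1%). Unchanged compound in supernatant quantified by LC/MS; remaining rate (%) = amount at each time / amount at zero time × 100.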

As to `CN(C)C(=O)COC(=O)c1ccc(OC(=O)CCCc2ccc(NC(=O)c3ccccc3-c3ccc(C(F)(F)F)cc3)c(C(=O)N(C)C)c2)cc1` [Compound 1-85, 4-[4-(3-dimethylcarbamoyl-4-{(4'-trifluoromethylbiphenyl-2-carbonyl)amino}phenyl)butyryloxy]benzoic acid dimethylcarbamoylmethyl ester], the remaining at 10 min in data set [1] worked out at 0%; in data set [2], 61%; in data set [3], 103%. For the same compound, the remaining at 1 h is 0% in data set [1], 4% in data set [2] and 102% in data set [3].

Take `CN(C)C(=O)Cn1nnc(-c2ccc(OC(=O)CCCc3ccc(NC(=O)c4ccccc4-c4ccc(C(F)(F)F)cc4)c(C(=O)N(C)C)c3)cc2)n1` [Compound 1-105, 4-(3-dimethylcarbamoyl-4-{(4'-trifluoromethylbiphenyl-2-carbonyl)amino}phenyl)butyric acid 4-(2-dimethylcarbamoylmethyl-2H-tetrazol-5-yl)phenyl ester]: the remaining at 10 min amounted to 3% in data set [1], 84% in data set [2] and 101% in data set [3]. Also, the remaining at 1 h in data set [1] amounted to 0%; in data set [2] it was 43%; in data set [3], 101%.

With `COC(=O)c1ccc(OC(=O)CCCc2ccc(NC(=O)c3ccccc3-c3ccc(C(F)(F)F)cc3)c(C(=O)N(C)C)c2)c(Cl)c1` [Compound 1-11, 3-chloro-4-(4-{3-dimethylcarbamoyl-4-[(4'-trifluoromethylbiphenyl-2-carbonyl)amino]phenyl}butyryloxy)benzoic acid methyl ester], the figures for the remaining at 10 min in data set [1], in data set [2] and in data set [3] were 0%, 0% and 99%, respectively. Moreover, the remaining at 1 h in data set [1] is 0%; in data set [2], 0%; in data set [3], 99%.

In the case of `COC(=O)c1ccc(OC(=O)CCCc2ccc(NC(=O)c3ccncc3-c3ccc(C(F)(F)F)cc3)c(C(=O)N(C)C)c2)cc1` [Compound 1-30, 4-[4-(3-dimethylcarbamoyl-4-{[3-(4-trifluoromethylphenyl)pyridine-4-carbonyl]amino}phenyl)butyryloxy]benzoic acid methyl ester], the remaining at 10 min is 0% in data set [1], 0% in data set [2] and 99% in data set [3]. Besides, the remaining at 1 h was 0% in data set [1], 0% in data set [2] and 99% in data set [3].

In the case of `Cc1noc(-c2ccc(OC(=O)CCCc3ccc(NC(=O)c4ccccc4-c4ccc(C(F)(F)F)cc4)c(C(=O)N(C)C)c3)cc2)n1` [Compound 1-2, 4-{3-dimethylcarbamoyl-4-[(4'-trifluoromethylbiphenyl-2-carbonyl)amino]phenyl}butyric acid 4-(3-methyl-[1,2,4]oxadiazol-5-yl)phenyl ester], the remaining at 10 min in data set [1] turned out to be 0%; in data set [2], 20%; in data set [3] it was 98%. The figures for the remaining at 1 h in data set [1], in data set [2] and in data set [3] were 0%, 0% and 97%, respectively.

Take `CCOC(=O)c1ccc(OC(=O)CCCc2ccc(NC(=O)c3ccc(C)nc3-c3ccc(C(F)(F)F)cc3)c(C(=O)N(C)C)c2)cc1` [Compound 1-71, 4-[4-(3-dimethylcarbamoyl-4-{[6-methyl-2-(4-trifluoromethylphenyl)pyridine-3-carbonyl]amino}phenyl)butyryloxy]benzoic acid ethyl ester]: the remaining at 10 min in data set [1] worked out at 0%; in data set [2] it was 53%; in data set [3] it was 102%. Also, the remaining at 1 h stood at 0% in data set [1], 0% in data set [2] and 105% in data set [3].

As to `COC(=O)c1ccc(-c2nc(C)ccc2C(=O)Nc2ccc(CCCC(=O)Oc3c(C)cc(C(=O)OC)cc3Cl)cc2C(=O)N(C)C)cc1` [Compound 4-1, 3-chloro-4-[4-(3-dimethylcarbamoyl-4-{[2-(4-methoxycarbonylphenyl)-6-methylpyridine-3-carbonyl]amino}phenyl)butyryloxy]-5-methylbenzoic acid methyl ester], the remaining at 10 min was determined as 0% in data set [1], 25% in data set [2] and 99% in data set [3]. In addition, the remaining at 1 h amounted to 0% in data set [1], 0% in data set [2] and 101% in data set [3].

Turning to `COC(=O)c1ccc(OC(=O)CCCc2ccc(NC(=O)c3ccccc3-c3ccc(C(F)(F)F)cc3)c(C(=O)N3CCOCC3)c2)cc1` [Compound 1-26, 4-(4-{3-(morpholine-4-carbonyl)-4-[(4'-trifluoromethylbiphenyl-2-carbonyl)amino]phenyl}butyryloxy)benzoic acid methyl ester], the remaining at 10 min came out at 0% in data set [1], 23% in data set [2] and 99% in data set [3]. In addition, the remaining at 1 h in data set [1] turned out to be 0%; in data set [2], 0%; in data set [3], 102%.

On to `CC(OC(=O)c1ccc(OC(=O)CCCc2ccc(NC(=O)c3ccccc3-c3ccc(C(F)(F)F)cc3)c(C(=O)N(C)C)c2)cc1)c1ccccc1` (stereo not drawn) [Compound 1-106, 4-[4-(3-dimethylcarbamoyl-4-{(4'-trifluoromethylbiphenyl-2-carbonyl)amino}phenyl)butyryloxy]benzoic acid 1-phenylethyl ester], for which the remaining at 10 min in data set [1] is 13%; in data set [2], 49%; in data set [3], 98%. Also, the remaining at 1 h amounted to 0% in data set [1], 0% in data set [2] and 99% in data set [3].

As for `COC(=O)c1ccc(OC(=O)CCCc2ccc(NC(=O)c3ccccc3-c3ccc(C(F)(F)F)cc3)c(C(=O)N3CCCC3)c2)cc1` [Compound 1-15, 4-(4-{3-(pyrrolidine-1-carbonyl)-4-[(4'-trifluoromethylbiphenyl-2-carbonyl)amino]phenyl}butyryloxy)benzoic acid methyl ester], the results for the remaining at 10 min in data set [1], in data set [2] and in data set [3] were 4%, 42% and 98%, respectively. The results for the remaining at 1 h in data set [1], in data set [2] and in data set [3] were 0%, 0% and 100%, respectively.

Consider `CC(C)n1nnc(-c2ccc(OC(=O)CCCc3ccc(NC(=O)c4ccccc4-c4ccc(C(F)(F)F)cc4)c(C(=O)N(C)C)c3)cc2)n1` [Compound 1-115, 4-(3-dimethylcarbamoyl-4-{(4'-trifluoromethylbiphenyl-2-carbonyl)amino}phenyl)butyric acid 4-(2-isopropyl-2H-tetrazol-5-yl)phenyl ester], for which the remaining at 10 min in data set [1] was determined as 0%; in data set [2] it was 85%; in data set [3] it was 98%. Further, the remaining at 1 h in data set [1] was 0%; in data set [2], 40%; in data set [3], 98%.
